Test results published in patent US12296053B2, “Nanomaterials comprising triols” (Beam Therapeutics Inc., priority 2022, dated 2025).

Assays:
[1] = Encapsulation efficiency of LNP preparations (Ribogreen assay; Qubit, unlysed and lysed LNPs); type: physicochemical; conditions: LNP preparation with the ionizable lipid, ABE mRNA:sgRNA 1:1, except 7-1, 7-2, 7-6, 7-10 (unlysed and lysed LNPs, Qubit)
Procedure: (§1) Lipid nanoparticle components were dissolved in 100% ethanol at specified lipid component molar ratios. mRNA encoding an adenine base editor and a chemically-modified sgRNA was dissolved at a mass ratio of 1:1 in 50 mM citrate, pH 4.0, resulting in a concentration of NA cargo of approximately 0.1 mg/mL.
(§2) LNP preparations were formulated with molar ratios of 47.5% Ionizable Lipid: 40% Cholesterol: 2.5% PEG2000-DMG: 10% DSPC total lipid to NA molar ratio of 6 to 12.
(§3) LNP preparations were formed by microfluidic mixing of the lipid and NA solutions using Precision Nanosystems NanoAssemblr Ignite series Instruments, according to the manufacturer's protocol.
With the exception of LNPs comprising ionizable lipids 7-1, 7-2, 7-6, and 7-10, RNA concentration and encapsulation efficiency were determined by Ribogreen assay (BioTek Synergy LX plate reader). For LNPs comprising ionizable lipids 7-1, 7-2, 7-6, and 7-10, RNA concentration was determined by Qubit microRNA kit (for siRNA) or HS RNA kit (for mRNA) per manufacturer's instructions, and encapsulation efficiency was determined by measuring unlysed and lysed LNPs.

[2] = LNP hydrodynamic diameter and polydispersity index by dynamic light scattering (DLS); type: physicochemical; conditions: for Diameter (nm): hydrodynamic diameter of the LNP preparation with the ionizable lipid; for PDI: polydispersity index of the LNP preparation with the ionizable lipid
Procedure: (§4) A 3:1 ratio of aqueous to organic solvent was maintained during mixing using differential flow rates. After mixing, LNP preparations were collected and diluted in TBS (approximately 7:1 v/v), and further buffer exchange was conducted using dialysis in TBS at 4° C. for 8 to 24 hours against a 20 kDa filter. After this initial dialysis, each individual LNP preparation was characterized via dynamic light scattering (DLS) to measure size and polydispersity. pKa of a subpopulation of LNP preparations was measured via TNS assay.
DLS-LNP preparation hydrodynamic diameter and polydispersity index (PDI) was measured using high throughput dynamic light scattering (DLS) (DynaPro plate reader II, Wyatt). LNP preparations were diluted 1×PBS to an appropriate concentration and analyzed.

ALAS1 target site = test: Base editing in liver by LNP-delivered ABE mRNA and sgRNA, targeted deep sequencing; type: in vivo; conditions: LNP with the ionizable lipid, ABE mRNA + sgRNA targeting ALAS1 1:1; tail vein injection, Balb/c mice; 0.05 mg/kg; tissues four to six days post-dose
Procedure: as §1, §2, §3, §4
Male Balb/C mice aged approximately 8-12 weeks were used in the experiments described herein. […]
Age-matched mice were also used to administer vehicle (1×TBS) via tail vein injection as a control. Four to six days post-dose, tissues including liver, spleen, and bone marrow were collected. Base editing was determined by performing targeted deep sequencing analysis at the ALAS1 target site using extracted genomic DNA. Genomic DNA was isolated and fragmented and adapter-ligated using the Nextera DNA Flex Library Prep Kit (Illumina) using the 96-well plate Nextera indexing primers (Illumina), according to the manufacturer's instructions. Library size and concentration was confirmed by Fragment Analyzer (Agilent) and analyzed for whole genome sequencing using an Illumina HiSeq.

Encapsulation Efficiency (%) [1] [%] | Diameter (nm) [2] [nm] | PDI [2] | SMILES | % Editing in Liver (0.05 mpk) (ALAS1 target site) [%]
97.5 | 64.70 | 0.14 | CCCCC/C=C\C/C=C\CCCCCCCC(=O)OCC(COC(=O)CCC(CCCCCC)OC(=O)NCCN1CCCC1)COC(=O)CCC(OCCCCCCCC)OCCCCCCCC (centres unmarked) [Compound 7-1, 3-((4,4-bis(octyloxy)butanoyl)oxy)-2-(((4-(((2-(pyrrolidin-1-yl)ethyl)carbamoyl)oxy)decanoyl)oxy)methyl)propyl (9Z,12Z)-octadeca-9,12-dienoate] | 
97.8 | 43.80 | 0.04 | CC/C=C\CCCCOC(CCC(=O)OCC(COC(=O)CCCCCCC/C=C\C/C=C\CCCCC)COC(=O)CCC(CCCCCC)OC(=O)NCCN1CCCC1)OCCCC/C=C\CC (centres unmarked) [Compound 7-2, 3-((4,4-bis(((Z)-oct-5-en-1-yl)oxy)butanoyl)oxy)-2-(((4-(((2-(pyrrolidin-1-yl)ethyl)carbamoyl)oxy)decanoyl)oxy)methyl)propyl (9Z,12Z)-octadeca-9,12-dienoate] | 
19.8 | 85.72 | 0.72 | CC/C=C\CCCCOC(CCC(=O)OCC(COC(=O)CCCCCCC/C=C\C/C=C\CCCCC)COC(=O)CCC(CCCCCC)OC(=O)OCCCN(C)C)OCCCC/C=C\CC (centres unmarked) [Compound 7-3, 15-(((4,4-bis(((Z)-oct-5-en-1-yl)oxy)butanoyl)oxy)methyl)-9-hexyl-2-methyl-7,12-dioxo-6,8,13-trioxa-2-azahexadecan-16-yl (9Z,12Z)-octadeca-9,12-dienoate] | 
87.2 | 78.39 | 0.09 | CC/C=C\CCCCOC(CCC(=O)OCC(COC(=O)CCCCCCC/C=C\C/C=C\CCCCC)COC(=O)OCC(CCCCCC)OC(=O)NCCN1CCCC1)OCCCC/C=C\CC (centres unmarked) [Compound 7-5, 12-(((4,4-bis(((Z)-oct-5-en-1-yl)oxy)butanoyl)oxy)methyl)-6-hexyl-4,9-dioxo-1-(pyrrolidin-1-yl)-5,8,10-trioxa-3-azatridecan-13-yl (9Z,12Z)-octadeca-9,12-dienoate] | 
91.3 | 85.01 | 0.08 | CC/C=C\CCCCOC(CCC(=O)OCC(COC(=O)CCCCCCCOC(=O)C(CCCC)CCCCCC)COC(=O)CCC(CCCCCC)OC(=O)NCCN1CCCC1)OCCCC/C=C\CC (centres unmarked) [Compound 7-6, 3-((4,4-bis(((Z)-oct-5-en-1-yl)oxy)butanoyl)oxy)-2-(((8-((2-butyloctanoyl)oxy)octanoyl)oxy)methyl)propyl 4-(((2-(pyrrolidin-1-yl)ethyl)carbamoyl)oxy)decanoate] | 
95.0 | 66.85 | 0.06 | CC/C=C\CCCCOC(CCC(=O)OCC(COC(=O)CCCCCCOC(=O)C(CCCC)CCCCCC)COC(=O)CCC(CCCCCC)OC(=O)NCCN1CCCC1)OCCCC/C=C\CC (centres unmarked) [Compound 7-7, 3-((4,4-bis(((Z)-oct-5-en-1-yl)oxy)butanoyl)oxy)-2-(((7-((2-butyloctanoyl)oxy)heptanoyl)oxy)methyl)propyl 4-(((2-(pyrrolidin-1-yl)ethyl)carbamoyl)oxy)decanoate] | 
95.5 | 62.8 | 0.07 | CC/C=C\CCCCOC(CCC(=O)OCC(COC(=O)CCCCCCCOC(=O)C(CCCC)CCCCCC)COC(=O)OCC(CCCCCC)OC(=O)NCCN1CCCC1)OCCCC/C=C\CC (centres unmarked) [Compound 7-8, 12-(((4,4-bis(((Z)-oct-5-en-1-yl)oxy)butanoyl)oxy)methyl)-6-hexyl-4,9,15-trioxo-1-(pyrrolidin-1-yl)-5,8,10,14-tetraoxa-3-azadocosan-22-yl 2-butyloctanoate] | 14.8
88.2 | 76.95 | 0.09 | CC/C=C\CCCCOC(CCC(=O)OCC(COC(=O)CCCCCCC/C=C\C/C=C\CCCCC)COC(=O)CCC(CCCCCC)OC(=O)OCCCN(CC)CC)OCCCC/C=C\CC (centres unmarked) [Compound 7-10, 16-(((4,4-bis(((Z)-oct-5-en-1-yl)oxy)butanoyl)oxy)methyl)-3-ethyl-10-hexyl-8,13-dioxo-7,9,14-trioxa-3-azaheptadecan-17-yl (9Z,12Z)-octadeca-9,12-dienoate] | 
99.1 | 68.00 | 0.10 | CCCCCCCCOC(CCC(=O)OCC(COC(=O)CCCCCCOC(=O)C(CCCC)CCCCCC)COC(=O)CCC(CCCCCC)OC(=O)NCCN1CCCC1)OCCCCCCCC (centres unmarked) [Compound 7-11, 3-((4,4-bis(octyloxy)butanoyl)oxy)-2-(((7-((2-butyloctanoyl)oxy)heptanoyl)oxy)methyl)propyl 4-(((2-(pyrrolidin-1-yl)ethyl)carbamoyl)oxy)decanoate] | 13.2
99.4 | 84.26 | 0.06 | CC/C=C\CCCCOC(CCC(=O)OCC(COC(=O)CCCCCCOC(=O)C(CCCC)CCCCCC)COC(=O)CCC(CC)OC(=O)NCCN1CCCC1)OCCCC/C=C\CC (centres unmarked) [Compound 7-20, 12-(((4,4-bis(((Z)-oct-5-en-1-yl)oxy)butanoyl)oxy)methyl)-6-ethyl-4,9,15-trioxo-1-(pyrrolidin-1-yl)-5,10,14-trioxa-3-azahenicosan-21-yl 2-butyloctanoate] | 
99.2 | 83.43 | 0.03 | CC/C=C\CCCCOC(CCC(=O)OCC(COC(=O)CCCCCCOC(=O)C(CCCC)CCCCCC)COC(=O)CCC(CCC)OC(=O)NCCN1CCCC1)OCCCC/C=C\CC (centres unmarked) [Compound 7-21, 12-(((4,4-bis(((Z)-oct-5-en-1-yl)oxy)butanoyl)oxy)methyl)-4,9,15-trioxo-6-propyl-1-(pyrrolidin-1-yl)-5,10,14-trioxa-3-azahenicosan-21-yl 2-butyloctanoate] | 
85.9 | 84.01 | 0.09 | CC/C=C\CCCCOC(CCC(=O)OCC(COC(=O)CCCCCC(=O)OCCC(CCCCC)CCCCC)COC(=O)CCC(CC)OC(=O)NCCN1CCCC1)OCCCC/C=C\CC (centres unmarked) [Compound 7-24, 1-(3-((4,4-bis(((Z)-oct-5-en-1-yl)oxy)butanoyl)oxy)-2-(((4-(((2-(pyrrolidin-1-yl)ethyl)carbamoyl)oxy)hexanoyl)oxy)methyl)propyl) 7-(3-pentyloctyl) heptanedioate] | 
98.5 | 60.05 | 0.11 | CC/C=C\CCCCOC(CCC(=O)OCC(COC(=O)CCCCCC(=O)OCCC(CCCCC)CCCCC)COC(=O)CCC(CCCC)OC(=O)NCCN1CCCC1)OCCCC/C=C\CC (centres unmarked) [Compound 7-26, 1-(3-((4,4-bis(((Z)-oct-5-en-1-yl)oxy)butanoyl)oxy)-2-(((4-(((2-(pyrrolidin-1-yl)ethyl)carbamoyl)oxy)octanoyl)oxy)methyl)propyl) 7-(3-pentyloctyl) heptanedioate] | 
99.2 | 74.80 | 0.09 | CC/C=C\CCCCOC(CCC(=O)OCC(COC(=O)CCCCCCOC(=O)C(CCCC)CCCCCC)COC(=O)CCC(C)OC(=O)NCCN1CCCC1)OCCCC/C=C\CC (centres unmarked) [Compound 7-28, 12-(((4,4-bis(((Z)-oct-5-en-1-yl)oxy)butanoyl)oxy)methyl)-6-methyl-4,9,15-trioxo-1-(pyrrolidin-1-yl)-5,10,14-trioxa-3-azahenicosan-21-yl 2-butyloctanoate] | 
89.2 | 114.2 | 0.11 | CC/C=C\CCCCOC(CCC(=O)OCC(COC(=O)CCCCCCOC(=O)C(CCCC)CCCCCC)COC(=O)CCC(CCCCCC)OC(=O)NCCN(C)CC)OCCCC/C=C\CC (centres unmarked) [Compound 7-43, 3-((4,4-bis(((Z)-oct-5-en-1-yl)oxy)butanoyl)oxy)-2-(((7-((2-butyloctanoyl)oxy)heptanoyl)oxy)methyl)propyl 4-(((2-(ethyl(methyl)amino)ethyl)carbamoyl)oxy)decanoate] | 
